# Test system: human melanocyte line WM35
# Conditions: wild-type WM35 treated 24 h before H2O2 stress; compared with clone-2 line
# Experimental: To carry out the test, the cells are inoculated at the density of 2.5×10^4 cells/well and then treated with the compounds to be evaluated:
# a—1:1 mixture containing 4 μg/ml of cafestol and kahweol;
# After 24 h, the cells are exposed to a stress induced by H2O2.
# The cell viability is measured 24 h after the stress with the aid of 2′,7′-dichlorodihydrofluoresceine diacetate (H2DCFDA; D399, Molecular Probes).
structure (smiles),measurement,value
Cc1c(-c2cnccn2)ssc1=S [oltipraz],effect on sensitivity of the wild-type line to H2O2 induced stress,limits the sensitivity of the cells to H2O2 induced stress

# Reference: patent US8481762B2, “Administration of compounds that increase glutathione levels in the melanocytes for the treatment of canities” (L'Oreal, priority 2004, dated 2013)
